From patent US9688615B2, “Benzimidazole inhibitors of the sodium channel” (Mark G. DeGiacomo, priority 2011, dated 2017)
Where two headings read alike, the source gives them in different places.

Tested on: L5/L6 spinal nerve ligation (SNL) rats, mechanical hyperalgesia
Assay: L5/L6 Spinal Nerve Ligation (SNL) Chung pain model, assessment of mechanical hyperalgesia (digital Randall-Selitto)
Type: in vivo, male Sprague-Dawley rats
Conditions: p.o.; for Response Threshold (g) 1 hr / Response Threshold (g) 2 hr / Response Threshold (g) 4 hr / effect on mechanical hyperalgesia compared to vehicle treated animals / inhibition in vivo at 30 mg/kg: 30 mg/kg; for effect on mechanical hyperalgesia compared to vehicle treated animals: time points 1, 2, 4 hours after administration
Description: The Spinal Nerve Ligation is an animal model representing peripheral nerve injury generating a neuropathic pain syndrome. In this model experimental animals develop the clinical symptoms of tactile allodynia and hyperalgesia. L5/L6 Spinal nerve ligation (SNL) injury was induced using the procedure of Kim and Chung (Kim et al., Pain 50:355-363 (1992)) in male Sprague-Dawley rats (Harlan; Indianapolis, Ind.) weighing 200 to 250 grams. An exemplary protocol is provided below
The animals were anesthetized with isoflurane, the left L6 transverse process was removed, and the L5 and L6 spinal nerves were tightly ligated with 6-0 silk suture. The wound was closed with internal sutures and external tissue adhesive.
Baseline and post-treatment values for mechanical hyperalgesia were evaluated using a digital Randall-Selitto device (dRS; IITC Life Sciences, Woodland Hills, Calif.). Animals were allowed to acclimate to the testing room for a minimum of 30 minutes before testing. Animals were placed in a restraint sling that suspends the animal, leaving the hind limbs available for testing. Paw compression threshold was measured once at each time point for the ipsilateral and contralateral paws. The stimulus was applied to the plantar surface of the hind paw by a dome-shaped tip placed between the 3rd and 4th metatarsus, and pressure was applied gradually over approximately 10 seconds. Measurements are taken from the first observed nocifensive behavior of vocalization, struggle or withdrawal. A cut-off value of 300 g was used to prevent injury to the animal. The mean and standard error of the mean (SEM) were determined for each paw for each treatment group. Fourteen days after surgery, mechanical hyperalgesia was assessed and rats were assigned to treatment groups based on pre-treatment baseline values. Prior to initiating drug delivery, baseline behavioural testing data can be obtained. At selected times after infusion of the Test or Control Article behavioural data can then be collected again.

[1] = Rattus norvegicus, po, 1 hr after administration, read-out: % Reversal 1 hr
[2] = Rattus norvegicus, po, 2 hr after administration, read-out: % Reversal 2 hr
[3] = Rattus norvegicus, po, 4 hr after administration, read-out: % Reversal 4 hr

Structure (SMILES) | Response Threshold (g) 1 hr (1 hr after administration) [g] | Response Threshold (g) 2 hr (2 hr after administration) [g] | Response Threshold (g) 4 hr (4 hr after administration) [g] | effect on mechanical hyperalgesia compared to vehicle treated animals | inhibition in vivo at 30 mg/kg [1] [%] | inhibition in vivo at 30 mg/kg [2] [%] | inhibition in vivo at 30 mg/kg [3] [%] | inhibition in vivo at 100 mg/kg (Rattus norvegicus, po, 2 h, 100 mg/kg, 2 hr after administration, read-out: % Reversal 2 hr) [%]
CNCc1nc2cc(C(F)(F)F)cc(C(F)(F)F)c2[nH]1 [Compound (41), 1-(5,7-bis(trifluoromethyl)-1H-benzo[d]imidazol-2-yl)-N-methylmethanamine] | 99.6 | 108.3 | 109.0 | significantly decreased mechanical hyperalgesia at 2 and 4 hours | 13.8 | 20.7 | 21.3 | –
FC(F)(F)c1cc(C(F)(F)F)c2nc(CC3CNC3)[nH]c2c1 [Compound (1), 2-(azetidin-3-ylmethyl)-4,6-bis(trifluoromethyl)-1H-benzo[d]imidazole] | 93.8 | 120.6 | 113.3 | significantly decreased mechanical hyperalgesia at 2 and 4 hours | 9.2 | 30.2 | 24.4 | –
NCC1(CC(=O)O)CCCCC1 [Gabapentin] | – | – | – | – | – | – | – | 55.3
O=C1CNCCN1Cc1nc2cc(C(F)(F)F)cc(C(F)(F)F)c2[nH]1 [Compound (110), 1-((5,7-bis(trifluoromethyl)-1H-benzo[d]imidazol-2-yl)methyl)piperazin-2-one] | 100.6 | 148.5 | 126.1 | significantly decrease mechanical hyperalgesia at two and four hours | 14.6 | 51.2 | 34.1 | –
CN(Cc1nc2cc(C(F)(F)F)cc(C(F)(F)F)c2[nH]1)S(N)(=O)=O [Compound (56), N-{[4,6-bis(trifluoromethyl)-1H-benzimidazol-2-yl]methyl}-N-methylsulfuric diamide] | 110.8 | 131.4 | 140.4 | significantly decreased mechanical hyperalgesia 2 and 4 hours | 19.8 | 40.4 | 49.4 | –
NCCc1nc2cc(C(F)(F)F)cc(C(F)(F)F)c2[nH]1 [Compound (33), 2-(5,7-bis(trifluoromethyl)-1H-benzo[d]imidazol-2-yl)ethanamine] | 113.6 | 136.9 | 150.8 | significantly decreased mechanical hyperalgesia at 1, 2 and 4 hours | 22.4 | 44.7 | 58.1 | –
CC(C)(N)Cc1nc2cc(C(F)(F)F)cc(C(F)(F)F)c2[nH]1 [Compound (34), 1-(5,7-bis(trifluoromethyl)-1H-benzo[d]imidazol-2-yl)-2-methylpropan-2-amine] | 104.5 | 144.8 | 132.4 | significantly decreased mechanical hyperalgesia 2 and 4 hours | 15.3 | 54.2 | 42.3 | –
NCC(=O)NCc1nc2cc(C(F)(F)F)cc(C(F)(F)F)c2[nH]1 [Compound (24), 2-amino-N-((5,7-bis(trifluoromethyl)-1H-benzo[d]imidazol-2-yl)methyl)acetamide] | 84.0 | 118.4 | 116.6 | no significant effect on mechanical hyperalgesia at any time point tested | 0.8 | 27.9 | 26.5 | –
CC(C)C[C@H](CN)Cc1nc2c(C(F)(F)F)cc(C(F)(F)F)cc2[nH]1 [Compound (31), (S)-2-((4,6-bis(trifluoromethyl)-1H-benzo[d]imidazol-2-yl)methyl)-4-methylpentan-1-amine] | 107.9 | 139.0 | 109.9 | significantly decreased mechanical hyperalgesia 2 and 4 hours | 17.2 | 48 | 19.2 | –
CC(C)(N)C(=O)NCc1nc2cc(C(F)(F)F)cc(C(F)(F)F)c2[nH]1 [Compound (36), 2-amino-N-((5,7-bis(trifluoromethyl)-1H-benzo[d]imidazol-2-yl)methyl)-2-methylpropanamide] | 87.8 | 107.0 | 112.3 | no significant effect on mechanical hyperalgesia at any time point tested | -0.5 | 18.6 | 23.8 | –
